{"source": "patent EP0664129A2", "about": "“Epicholesterol for treating dyslipidemia” (PHARMACIA S.p.A., priority 1994, dated 1995)", "key": {"[1]": {"tested_on": "Mice", "test": "Cholesterol / epicholesterol enriched diets in mice: plasma and liver total cholesterol (enzymatic colorimetric method)", "assay_type": "in vivo, male CD mice", "settings": "4 days", "procedure": "(§1) Male Sprague Dawley rats weighing 250 g and male CD mice weighing 22-25 g (Charles River) were housed in rooms maintained at 21±1°C with relative humidity 50-60% and a 12 hours light-dark cycle. After a week of housing, the animals were allocated to the different experimental groups and received one of the following diets: • a) rat or mouse chow diet, containing 0.5% sodium cholate; • b) cholesterol enriched diet, containing 0.5% sodium cholate and 1.5% cholesterol; • c) epicholesterol enriched diet, containing 0.5% sodium cholate and 1.5% epicholesterol; • d) epicholesterol and cholesterol enriched diet containing 0.5% sodium cholate and 1.5% of both sterols. Weight of the animals and food consumption were recorded daily. After overnight fasting, the animals were anesthetized with sodium pentobarbital (50 mg/kg body weight) and exsanguinated from the abdominal aorta. Plasma was obtained by low speed (3000 g for 10 min) centrifugation of whole blood containing Na₂EDTA as anticoagulant. Plasma lipid extracts were prepared according to Bligh E.G., Dyer W.J., Can. J. Bioch. Physiol, 31, 911, 1959. Liver specimens (500 mg) were excised from the lateral liver lobe, washed in ice-cold saline, and immediately placed on dry-ice and stored at -80°C. They were extracted according to the method of Folch J. et al., J. Biol. Chem. , 226, 497, 1957, as modified by Carlson L.A., J. Atheroscler. Res., 3, 334, 1963. Plasma and liver total cholesterol content (i.e. unesterified and esterified cholesterol fractions) were determined by the enzymatic colorimetric method of Allain et al., Clin. Chem., 20, 470, 1974. In this assay epicholesterol is not read."}, "[2]": {"tested_on": "Rats", "test": "Cholesterol / epicholesterol enriched diets in rats: plasma and liver total cholesterol (enzymatic colorimetric method)", "assay_type": "in vivo, Male Sprague Dawley rats", "settings": "4 days", "procedure": "as §1"}, "[3]": {"test": "Micellar cholesterol solubilization in vitro", "assay_type": "physicochemical", "settings": "for Micellar Cholesterol Content: cholesterol 1 mM", "procedure": "The micellar solubility of cholesterol in vitro was measured by the method of Ikeda I., Tanabe Y. and Sugano M. , J. Nutr. Sci. Vitaminol. 35, 361, 1989. In detail, cholesterol (1 mM) or mixture of cholesterol (1 mM) and epicholesterol (0.5-8 mM) were sonicated for 2 minutes at 37°C in 15 mM NaPO₄ buffer, pH 7.4, containing 0.6 mM egg yolk lecithin, 1 mM oleic acid, 0.5 mM monolein, 6.6 mM Na taurocholate, and 132 mM NaCl. After incubation at 37°C overnight, the solutions were subjected to ultracentrifugation (100,000 g for 60 min at 37°C). Samples of the supernatant were assayed for the cholesterol content."}, "[4]": {"test": "Gas liquid chromatography of unesterified sterols in plasma and liver of mice fed enriched diets", "assay_type": "in vivo", "settings": "for Percent Distribution Epicholesterol (unesterified sterol content): 1.5% sterol enriched diet, Mean ± SD, n=3, nd: not detectable", "procedure": "Male Sprague Dawley rats weighing 250 g and male CD mice weighing 22-25 g (Charles River) were housed in rooms maintained at 21±1°C with relative humidity 50-60% and a 12 hours light-dark cycle. After a week of housing, the animals were allocated to the different experimental groups and received one of the following diets: • a) rat or mouse chow diet, containing 0.5% sodium cholate; • b) cholesterol enriched diet, containing 0.5% sodium cholate and 1.5% cholesterol; • c) epicholesterol enriched diet, containing 0.5% sodium cholate and 1.5% epicholesterol; • d) epicholesterol and cholesterol enriched diet containing 0.5% sodium cholate and 1.5% of both sterols. Weight of the animals and food consumption were recorded daily.\nAfter overnight fasting, the animals were anesthetized with sodium pentobarbital (50 mg/kg body weight) and exsanguinated from the abdominal aorta. Plasma was obtained by low speed (3000 g for 10 min) centrifugation of whole blood containing Na₂EDTA as anticoagulant.\nPlasma lipid extracts were prepared according to Bligh E.G., Dyer W.J., Can. J. Bioch. Physiol, 31, 911, 1959.\nLiver specimens (500 mg) were excised from the lateral liver lobe, washed in ice-cold saline, and immediately placed on dry-ice and stored at -80°C. They were extracted according to the method of Folch J. et al., J. Biol. Chem. , 226, 497, 1957, as modified by Carlson L.A., J. Atheroscler. Res., 3, 334, 1963.\nLipids extract from plasma and liver were separated by TLC on Silica Gel plates from Merck using petroleum ether 40-70°/diethyl ether/acetic acid (80:20:1) as developing system. Cholesterol, epicholesterol, dihydrocholesterol, and 7-keto-cholesterol as representative of the oxysterol class of sterols migrated with very similar Rf and could be recovered as a single area from the TLC plate. These sterols were eluted from the silica using chloroform and were dried by evaporation under N₂. The samples were redissolved in pyridine and derivatizated adding an equal volume of MBSTFA [N-methyl-N(tert-butyldimethylsilyl)Trifluoroacetamide].\nAfter 20 minutes at room temperature the samples were analyzed by GLC according to Smith N.B., Lipids, 17, 464, 1982, on a Carlo Erba Mega 3000 gaschromatographer equipped with a flame ionization detector and a 25 m OV1 column (0.2 mm id., film thickness 0.2-0.25). He was used as carrier at 100 Kps. The splitless injection technique was used and 1-2 µl sample were injected. […] The injection and the detector temperatures were respectively 340°C and 350°C. Retention time of cholesterol, epicholesterol, dihydrocholesterol and 7keto-cholesterol were determined by injecting pure sterols."}, "[5]": {"settings": "diet with 0.5% sodium cholate and 1.5% of the single sterol"}, "[6]": {"settings": "diet with 0.5% sodium cholate and 1.5% of the single sterol, listed as cholesterol"}, "[7]": {"settings": "diet with 0.5% sodium cholate and 1.5% of the single sterol, mean±spread"}, "[8]": {"settings": "diet with 0.5% sodium cholate and 1.5% of the single sterol, listed as epicholesterol"}, "[9]": {"settings": "diet with 1.5% Cholesterol and 1.5% Epicholesterol together, 0.5% sodium cholate"}, "[10]": {"settings": "diet with 1.5% Cholesterol and 1.5% Epicholesterol together, 0.5% sodium cholate, listed as epicholesterol"}}, "data": [{"compound": "CC(C)CCC[C@@H](C)[C@H]1CC[C@H]2[C@@H]3CC=C4C[C@@H](O)CC[C@]4(C)[C@H]3CC[C@]12C", "note": "[Cholesterol]", "values": [{"measurement": "CHOLESTEROL CONCENTRATION IN LIVER", "setting": "[1]; [5]", "result": "**18.70±2.60 (n=10) mg/g fresh tissue"}, {"measurement": "CHOLESTEROL CONCENTRATION IN PLASMA", "setting": "[1]; [5]", "result": "**152±19 (n=10) mg/dl"}, {"measurement": "CHOLESTEROL CONCENTRATION IN LIVER", "setting": "[1]; [6]", "result": "at least a fourfold increase"}, {"measurement": "CHOLESTEROL CONCENTRATION IN PLASMA", "setting": "[1]; [6]", "result": "rose significantly"}, {"measurement": "CHOLESTEROL CONCENTRATION IN LIVER", "setting": "[2]; [5]", "result": "**11.28±1.48 (n=7) mg/g fresh tissue"}, {"measurement": "CHOLESTEROL CONCENTRATION IN LIVER", "setting": "[2]; [6]", "result": "at least a fourfold increase"}, {"measurement": "CHOLESTEROL CONCENTRATION IN PLASMA", "setting": "[2]; [7]", "result": "**178±45 (n=7) mg/dl"}, {"measurement": "CHOLESTEROL CONCENTRATION IN PLASMA", "setting": "[2]; diet with 0.5% sodium cholate and 1.5% of the single sterol, mean±spread, listed as cholesterol", "result": "rose significantly"}]}, {"compound": "CC(C)CCC[C@@H](C)[C@H]1CC[C@H]2[C@@H]3CC=C4C[C@H](O)CC[C@]4(C)[C@H]3CC[C@]12C", "note": "[Epicholesterol, cholest-5-en-3α-ol]", "values": [{"measurement": "Micellar Cholesterol Content", "setting": "[3]; Cholesterol-to-Epicholesterol Ratio 0.125", "result": "0.18 ± 0.02", "unit": "mM"}, {"measurement": "Micellar Cholesterol Content", "setting": "[3]; Cholesterol-to-Epicholesterol Ratio 0.25", "result": "0.22 ± 0.03", "unit": "mM"}, {"measurement": "Micellar Cholesterol Content", "setting": "[3]; Cholesterol-to-Epicholesterol Ratio 0.5", "result": "0.23 ± 0.06", "unit": "mM"}, {"measurement": "Micellar Cholesterol Content", "setting": "[3]; Cholesterol-to-Epicholesterol Ratio 1", "result": "0.42 ± 0.03", "unit": "mM"}, {"measurement": "Micellar Cholesterol Content", "setting": "[3]; Cholesterol-to-Epicholesterol Ratio 2, control (cholesterol only) 1.00 ± 0.05", "result": "0.71 ± 0.05", "unit": "mM"}, {"measurement": "decrease of cholesterol micellar solubility", "setting": "[3]; cholesterol and epicholesterol in a 1 to 0.5 molar ratio", "result": "more than 30%"}, {"measurement": "cholesterol micellar solubility", "setting": "[3]; epicholesterol and cholesterol mixed together, all the concentrations tested of epicholesterol (0.5-8 mM)", "result": "significantly decreased"}, {"measurement": "CHOLESTEROL CONCENTRATION IN LIVER", "setting": "[1]; [5]", "result": "°° 2.58±0.16 (n=10) mg/g fresh tissue"}, {"measurement": "CHOLESTEROL CONCENTRATION IN PLASMA", "setting": "[1]; [5]", "result": "* 93±15 °°(n=10) mg/dl"}, {"measurement": "CHOLESTEROL CONCENTRATION IN LIVER", "setting": "[1]; [8]", "result": "did not brought about any significant change"}, {"measurement": "CHOLESTEROL CONCENTRATION IN PLASMA", "setting": "[1]; [8]", "result": "did not brought about any significant change"}, {"measurement": "CHOLESTEROL CONCENTRATION IN LIVER", "setting": "[1]; [9]", "result": "** 9.54±1.49 °° (n=10) □□ mg/g fresh tissue"}, {"measurement": "CHOLESTEROL CONCENTRATION IN PLASMA", "setting": "[1]; [9]", "result": "**115±26 □(n=10) mg/dl"}, {"measurement": "CHOLESTEROL CONCENTRATION IN LIVER", "setting": "[1]; [10]", "result": "significant decrease"}, {"measurement": "CHOLESTEROL CONCENTRATION IN PLASMA", "setting": "[1]; [10]", "result": "significant decrease"}, {"measurement": "absorption by the intestine", "setting": "[4]; conclusion from plasma and liver sterol content of mice fed 1.5% epicholesterol diet", "result": "only minimally absorbed"}, {"measurement": "Percent Distribution Epicholesterol (unesterified sterol content)", "setting": "[4]; mice liver", "result": "1.0±0.4", "unit": "%"}, {"measurement": "Percent Distribution Epicholesterol (unesterified sterol content)", "setting": "[4]; mice liver, listed as epicholesterol", "result": "only trace amount"}, {"measurement": "Percent Distribution Epicholesterol (unesterified sterol content)", "setting": "[4]; mice plasma", "result": "2.6±1.5", "unit": "%"}, {"measurement": "Percent Distribution Epicholesterol (unesterified sterol content)", "setting": "[4]; mice plasma, listed as epicholesterol", "result": "only trace amount"}, {"measurement": "CHOLESTEROL CONCENTRATION IN LIVER", "setting": "[2]; [5]", "result": "°° 2.59±0.38 (n=3) mg/g fresh tissue"}, {"measurement": "CHOLESTEROL CONCENTRATION IN LIVER", "setting": "[2]; [8]", "result": "did not brought about any significant change"}, {"measurement": "CHOLESTEROL CONCENTRATION IN PLASMA", "setting": "[2]; [7]", "result": "°° 64±18 (n=3) mg/dl"}, {"measurement": "CHOLESTEROL CONCENTRATION IN PLASMA", "setting": "[2]; diet with 0.5% sodium cholate and 1.5% of the single sterol, mean±spread, listed as epicholesterol", "result": "did not brought about any significant change"}, {"measurement": "CHOLESTEROL CONCENTRATION IN LIVER", "setting": "[2]; [9]", "result": "** 5.71±0.95 °° (n=3) □ mg/g fresh tissue"}, {"measurement": "CHOLESTEROL CONCENTRATION IN PLASMA", "setting": "[2]; [9]", "result": "**103±9 ° (n=3) □ mg/dl"}, {"measurement": "CHOLESTEROL CONCENTRATION IN LIVER", "setting": "[2]; [10]", "result": "significant decrease"}, {"measurement": "CHOLESTEROL CONCENTRATION IN PLASMA", "setting": "[2]; [10]", "result": "significant decrease"}]}]}
